Data as given in US20240307477A1, “COMPOSITION FOR PREVENTING OR TREATING LIVER FIBROSIS INCLUDING SANGUISORBA OFFICINALIS EXTRACT AS ACTIVE INGREDIENT” (KOREA INSTITUTE OF SCIENCE AND TECHNOLOGY, priority 2023, published 2024).

System: human immortalization hepatic stellate cells (human LX-2)
Assay: RT-qPCR of liver fibrosis-related gene expression in TGF-β-treated hepatic stellate cells
Assay type: cell-based
Conditions: LX-2 cells, 5 ng/mL TGF-β, 24 hours; extract 1, 5 or 10 μg/mL, ziyuglycoside 5 μM; RT-qPCR vs GAPDH
Experimental: As hepatic stellate cells, human immortalization hepatic stellate cells (human LX-2) were given and used. The hepatic stellate cells were cultured in Dulbecco's modified Eagle's medium (DMEM; Invitrogen, US) containing 10% fetal bovine serum (FBS), penicillin (100 U/mL) and streptomycin ([…]) at 37° C. and in a 5% CO2 condition.
To measure the hepatic anti-fibrosis effect of the Sanguisorba officinalis extract (1, 5 or 10 μg/mL) and ziyuglycoside (5 μM) in the LX-2 cells, a real time-quantitative polymerase chain reaction (RT-qPCR) was performed.
First, the hepatic stellate cells were treated with each of the Sanguisorba officinalis extract (1, 5, or 10 μg/mL) and the ziyuglycoside (5 μM) along with 5 ng/mL of a liver fibrosis-inducing material TGF-β and cultured for 24 hours. Afterward, the cells were washed with PBS, total RNA was then extracted according to the manual of an RNA extraction kit (GeneAll RNA isolation kit, Korea), and cDNA was synthesized from the extracted RNA. PCR analysis was performed under user recommended cycling conditions of an analyzer (Applied Biosystems 7900 HT thermal cycler, Applied Biosystems), and to confirm the expression level of each mRNA, PCR was performed using the primers in Table 1 below, and the fold change value for the control was calculated using GAPDH as an endogenous control, and a relative expression level was compared.

C[C@@H]1CC[C@]2(C(=O)O[C@@H]3O[C@H](CO)[C@@H](O)[C@H](O)[C@H]3O)CC[C@]3(C)C(=CC[C@@H]4[C@@]5(C)CC[C@H](O[C@@H]6OC[C@H](O)[C@H](O)[C@H]6O)C(C)(C)[C@@H]5CC[C@]43C)[C@@H]2[C@]1(C)O [ziyuglycoside I]
ACTA2 gene expression increased by TGF-β treatment: inhibited | COL1A1 gene expression increased by TGF-β treatment: inhibited | TIMP1 gene expression increased by TGF-β treatment: inhibited

ziyuglycoside
ACTA2 gene expression increased by TGF-β treatment: reduced | COL1A1 gene expression increased by TGF-β treatment: reduced | TIMP1 gene expression increased by TGF-β treatment: reduced

C[C@@H]1CC[C@]2(C(=O)O)CC[C@]3(C)C(=CC[C@@H]4[C@@]5(C)CC[C@H](O[C@@H]6OC[C@H](O)[C@H](O)[C@H]6O)C(C)(C)[C@@H]5CC[C@]43C)[C@@H]2[C@]1(C)O [ziyuglycoside II]
ACTA2 gene expression increased by TGF-β treatment: inhibited | COL1A1 gene expression increased by TGF-β treatment: inhibited | TIMP1 gene expression increased by TGF-β treatment: inhibited
